Results on four compounds are retold here after ChEMBL document CHEMBL1201862, “PubChem BioAssay data set” (2004).

Among the test systems are EKVX; 786-0; HL-60; SK-OV-3; SNB-75; UO-31; OVCAR-8; LOX IMVI; HCC 2998; SK-MEL-28; TK-10; OVCAR-3; OVCAR-4; PC-3; SNB-19; HCT-15; UACC-62; SK-MEL-2; SF-295; CAKI-1.
Holding throughout (test): inhibition of tumour cell growth, NCI panel, 48 h

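Results reflect a 48-hour exposure of cells in 96-well plates to compound at five concentrations. GI50: concentration for 50% inhibition of growth.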 Activity calls are given as the source filed them. Rule as the data show it: active = GI50 up to about 1.1 µM and inactive = higher. Bounds are passed on as bounds.

As to `CC[C@]1(Cc2ccc(OC)c(OC)c2)C=[N+]([O-])O[C@H](OC2CCCC2(c2ccccc2)c2ccccc2)[C@@H]1OC(=O)C(C)(C)C` (stereo not given in full), the GI50 in the assay on EKVX was 4.61 µM (inactive); in the assay on 786-0 it was 2.05 µM (inactive); with HL-60, 2.18 µM (inactive); with SK-OV-3, 15.2 µM (inactive); in the assay with SNB-75, 3.63 µM (inactive); in the assay on UO-31 it was 1.77 µM (inactive). Further, the GI50 was 2.19 µM (inactive) with OVCAR-8; 1.95 µM (inactive) in the assay on LOX IMVI; 1.94 µM (inactive) in the assay on HCC 2998; 2.09 µM (inactive) with SK-MEL-28; 3.23 µM (inactive) with TK-10; 1.55 µM (inactive) in the assay on OVCAR-3. Besides, the GI50 is 3.27 µM (inactive) with OVCAR-4; 3.69 µM (inactive) in the assay on PC-3; 3.84 µM (inactive) in the assay with SNB-19; 3.08 µM in the assay on HCT-15; 3.66 µM (inactive) in the assay with UACC-62; 2.66 µM (inactive) in the assay with SK-MEL-2. The results for the GI50 with SF-295 and in the assay on CAKI-1 were 3.47 µM (inactive) and 4.19 µM (inactive), respectively.

Take `Nc1nnnn1NC(=O)NCCCl`: the GI50 in the assay with EKVX, in the assay with 786-0, in the assay on HL-60, in the assay on SK-OV-3, with SNB-75 and in the assay on UO-31 was > 10 µM (inactive) each time. For the same compound, the GI50 in the assay on OVCAR-8, with LOX IMVI, with HCC 2998, in the assay with SK-MEL-28, with TK-10 and in the assay with OVCAR-3 was > 10 µM (inactive) in each case. Also, the GI50 in the assay with OVCAR-4 is > 10 µM (inactive); in the assay with PC-3 it was > 10 µM (inactive); with SNB-19, > 10 µM (inactive); in the assay on HCT-15 it was above 10 µM; with UACC-62, > 10 µM (inactive); with SK-MEL-2 it was > 10 µM (inactive). For the same compound, the GI50 with SF-295 and in the assay on CAKI-1 was > 10 µM (inactive) throughout.

With `CCN(CC)CCC1CCCCN1CC(=O)N1c2ccccc2NC(=O)c2ccccc21` (stereo not given), the GI50 in the assay on EKVX was > 100 µM (inactive); with 786-0, > 100 µM (inactive); in the assay with HL-60, > 100 µM (inactive); in the assay with SK-OV-3, > 100 µM (inactive); in the assay on SNB-75 it was 6.11 µM (inactive); with UO-31, > 100 µM (inactive). The GI50 in the assay on OVCAR-8, in the assay with LOX IMVI, in the assay with HCC 2998, in the assay on SK-MEL-28, in the assay on TK-10 and in the assay on OVCAR-3 was > 100 µM (inactive) each time. The GI50 with OVCAR-4 was > 100 µM (inactive); in the assay on PC-3 it was > 100 µM (inactive); in the assay with SNB-19 it was > 100 µM (inactive); in the assay on HCT-15, above 100 µM; in the assay on UACC-62 it was > 100 µM (inactive); in the assay on SK-MEL-2, > 100 µM (inactive). The GI50 with SF-295 and in the assay with CAKI-1 was > 100 µM (inactive) each time.

Consider `CCN1C/C(=C\c2ccc(Cl)cc2)c2nc(N)c(C#N)c(-c3ccc(Cl)cc3)c2C1`, for which the GI50 in the assay on EKVX was > 100 µM (inactive); with 786-0 it was > 100 µM (inactive); in the assay with HL-60 it was > 100 µM (inactive); with SK-OV-3 it was > 100 µM (inactive); with SNB-75, 60.3 µM (inactive); in the assay with UO-31, > 100 µM (inactive). Moreover, the GI50 with OVCAR-8, in the assay with LOX IMVI, in the assay with HCC 2998, with SK-MEL-28, in the assay with TK-10 and with OVCAR-3 was > 100 µM (inactive) throughout. Further, the GI50 in the assay on OVCAR-4 was > 100 µM (inactive); with PC-3, > 100 µM (inactive); in the assay with SNB-19 it was > 100 µM (inactive); with HCT-15, above 100 µM; in the assay with UACC-62, > 100 µM (inactive); with SK-MEL-2 it was > 100 µM (inactive). Besides, the GI50 in the assay on SF-295 and with CAKI-1 was > 100 µM (inactive) throughout.
